{
  "source": "patent US20070161696A1",
  "about": "“Methods of using and compositions comprising selective cytokine inhibitory drugs for treatment, modification and management of pain” (priority 2004, published 2007)",
  "key": {"TNF-α production": {"system": "TNF-α production", "assay": "Inhibition of TNF-α production following LPS-stimulation of human PBMC and human whole blood, in vitro", "type": "cell-based", "conditions": "in vitro studies; compared with thalidomide", "experimental": "In a specific embodiment, the pharmacological properties of 3-(3,4-dimethoxy-phenyl)-3-(1-oxo-1,3-dihydro-isoindol-2-yl)-propionamide are characterized in in vitro studies. Studies examine the effects of the compound on the production of various cytokines. Inhibition of TNF-α production following LPS-stimulation of human PBMC and human whole blood by the compound is investigated in vitro. The IC50's of the compound for inhibiting production of TNF-α are measured. […] The pharmacological effects of 3-(3,4-dimethoxy-phenyl)-3-(1-oxo-1,3-dihydro-isoindol-2-yl)-propionamide may derive from its action as an inhibitor of the generation of inflammatory cytokines."}, "[1]": {"assay": "Cardiovascular and respiratory function in anesthetized dogs", "type": "in vivo", "conditions": "anesthetized Beagle dogs; ascending doses 400, 800 and 1,200 mg/kg/day by infusion through the jugular vein; compared to vehicle control group", "experimental": "The effects of 3-(3,4-dimethoxy-phenyl)-3-(1-oxo-1,3-dihydro-isoindol-2-yl)-propionamide on cardiovascular and respiratory function are investigated in anesthetized dogs. Two groups of Beagle dogs (2/sex/group) are used. One group receives three doses of vehicle only and the other receives three ascending doses of 3-(3,4-dimethoxy-phenyl)-3-(1-oxo-1,3-dihydro-isoindol-2-yl)-propionamide (400, 800, and 1,200 mg/kg/day). In all cases, doses of 3-(3,4-dimethoxy-phenyl)-3-(1-oxo-1,3-dihydro-isoindol-2-yl)-propionamide or vehicle are successively administered via infusion through the jugular vein separated by intervals of at least 30 minutes.\nThe cardiovascular and respiratory changes induced by 3-(3,4-dimethoxy-phenyl)-3-(1-oxo-1,3-dihydro-isoindol-2-yl)-propionamide are minimal at all doses when compared to the vehicle control group. 5.3 Studies Using Animal Pain Models"}, "[2]": {"assay": "Clinical study in pain patients with upper extremity CRPS", "type": "in vivo, human", "conditions": "1,200 mg as a continuous oral daily dose", "experimental": "Selective cytokine inhibitory drugs of the invention such as 3-(3,4-dimethoxy-phenyl)-3-(1-oxo-1,3-dihydro-isoindol-2-yl)-propionamide are administered in an amount of 400 to 1,200 mg per day to patients with pain syndromes for three to six months. A baseline evaluation is performed for the effect of the drug treatment on pain intensity, impact of pain on activities of daily living, and consumption of other pain medications.\nIn a specific embodiment, clinical studies are performed in pain patients who have upper extremity CRPS that has not responded to conventional physical therapy and has been present for at least one year. In the early course of their diseases, patients have clear evidence of autonomic dysfunction with formal autonomic testing (Quantitative sudomotor axon reflex test (QSART), resting sweat output, and thermography). If this is unavailable, documentation of clinical signs indicates autonomic dysfunction (changes in hydration, temperature, skin, nail or hair growth) along with symptoms of allodynia and swelling. […] Responses are assessed using standard pain scales, e.g., Numeric Pain Scale Assessment (VAS) for pain, quality of life using the McGill Index and objective signs in clinical examination such as a visible reduction of swelling, sweating, discolorations in skin color, temperature changes, changes in skin, hair and nail growth, and fine motor movements. […]"}},
  "data": [
    {"smiles": "COc1ccc(C(CC(N)=O)N2Cc3ccccc3C2=O)cc1OC", "note": "(stereo not drawn) [3-(3,4-Dimethoxy-phenyl)-3-(1-oxo-1,3-dihydro-isoindol-2-yl)-propionamide]", "values": [
      {"measurement": "pharmacological activity profile, potency relative to thalidomide", "setting": "TNF-α production", "value": "five to fifty times more potent than thalidomide"},
      {"measurement": "cardiovascular and respiratory changes", "setting": "[1]", "value": "minimal"},
      {"measurement": "tolerability", "setting": "[2]", "value": "well-tolerated"}
    ]}
  ]
}
